Key:
[1] = tested on: 4T1.2 mammary carcinoma cells; experiment: 4T1.2 mammary carcinoma mouse model of breast cancer metastasis; format: in vivo, BALB/c mice; conditions: 25 mg/kg/day oral, day 3 to day 12
full-length mouse SOX18 = full-length mouse SOX18 (Mus musculus (Mouse), UniProt P43680); experiment: FP DNA-binding competition assay, full-length SOX18; conditions: full-length mouse SOX18, Prox1-DNA probe, read-out: FP IC50 ± SD
Procedure: Full-length mouse SOX18. A N-terminally tagged mouse HIS-GST-SOX18 was recombinantly expressed in Sf9 cells, purified on GST resin (GE Healthcare Life Sciences, Sweden) and eluted in Tris buffer (50 mM Tris, 500 mM NaCl, 10 mM reduced glutathione, pH 8.0). cDNA clone of mouse Sox18 was PCR amplified and cloned into the pOPIN-GST vector, to generate N-terminally tagged HIS-GST-SOX18. A sequence verified construct was co-transfected with flashBACULTRA (Oxford Expression Technologies, Oxford, United Kingdom) baculovirus DNA onto Spodoptera frugiperda Sf9 cells to obtain recombinantly expressed HIS-GST-SOX18. High Five cells (BTI-TN-5B1-4) in Sf-900™ II serum-free medium were infected at cell density of 1.5×10^6 cells/mL with a multiplicity of infection (MOI) of 5 PFU/cell, and incubated at 21° C. for 144 h before harvest. The cell pellet from 100 mL of expression culture was resuspended in 30 mL of phosphate lysis buffer (50 mM sodium phosphate, 500 mM sodium chloride, 1% Triton X-100, 2 mM magnesium chloride, one tablet of cOmplete Protease Inhibitor Cocktail, pH 7.5) and sonicated on ice for 20 s. The cell lysate was centrifuged at 17,000×g for 40 min at 4° C. Supernatant was incubated with Benzonase Nuclease (Merck Millipore) for 1 h at room temperature for DNA degradation, before being mixed with 500 μL GST resin (GE Healthcare Life Sciences, Sweden) and incubated on a rotating wheel at room temperature for 1 h. The sample was centrifuged at 500×g for 1 min to remove unbound protein in the supernatant. The resin was further washed with 50 resin volumes (RV) wash buffer (50 mM sodium phosphate, 500 mM NaCl, pH 7.5), with unbound protein removed by centrifugation as above. Bound protein was eluted from the resin with 3×1 RV elution buffer (50 mM Tris, 500 mM NaCl, 10 mM reduced glutathione, pH 8.0), collecting the supernatant by centrifugation as above.
The DNA-binding competition assay was performed in black 384-well plates, with mouse full length SOX18, or SOX-HMG fragments. All experiments were performed using a fluorescently-labelled Prox1-DNA element. Controls consisted of free labelled DNA (low FP milli-Polarization index, mP), labelled DNA in presence of protein (negative control, high mP), and labelled DNA and protein in presence of competing excess of unlabelled DNA (positive control, low mP)
The DNA-binding competition assay was performed in 25 uL, in black 384-well plates, using either 30 mM HEPES (N-2-Hydroxyethylpiperazine-N′-2-Ethanesulfonic Acid) (pH 7.5, with 100 mM KCl, 40 mM NaCl, 10 mM NH4OAc, […], 2 mM MgCl2, 0.5 mM EDTA, 0.01% NP-40) for mouse full length SOX18, or Tris-NaCl (10 mM Tris pH 8.0 and 100 mM NaCl) for SOX-HMG fragments. All experiments were performed using a 40 bp double-stranded Prox1-DNA element with 5′ fluorescein amidite (FAM) label (Sigma Proligo or InVitrogen). Optimum binding levels were obtained at 200 nM of mouse full length SOX18 and 60 nM of SOX-HMG fragment, in presence of 5 nM labelled DNA. Controls consisted of free labelled DNA (low FP milli-Polarization index, mP), labelled DNA in presence of protein (negative control, high mP), and labelled DNA and protein in presence of 400 time competing excess of unlabelled DNA (positive control, low mP). Depending on compound, final DMSO concentrations ranged from 2 to 3.33% v/v. After mixing protein, DNA probe and compound, plates were sealed and briskly agitated in the dark for 5 minutes at room temperature, 10 minutes at 37° C., and 30 minutes at room temperature, before reading fluorescence polarization on a Tecan M1000Pro (λexc=485 nm, λem=525 nm). All experiments were performed in triplicates.

[2] = Cytotoxicity assay (Alamar blue), COS-7; format: cell-based, Monkey; conditions: chlorocebus aethiops, COS-7 cells; COS7, 24 h; read-out: In vitro cytotoxicity CC50 ± SD COS7
Procedure: Cell toxicity was determined using Alamar blue, as previously described (McMillian et al., 2002). COS-7 cells were seeded as 7000 cells per well in black wall clear bottom 96-well plates in DMEM medium (Life Technologies Australia) with 10% FBS. HepG2 and HEK293 cell lines, from ATCC, were seeded as 5000 cells per well in black wall clear bottom 384-well cell culture plates in DMEM with 1% FBS. Cells were cultured for 24 h at 37° C., 5% CO2. A serial dilution of compounds was added, with a final DMSO concentration adjusted to 0.5% v/v. Cells were incubated for another 24 h. 1 Triton X-100 was used as negative control, and 0.5% DMSO as positive control. 5 μM Alamar blue was added to each well and fluorescence was measured (λexc=560 nm, λem=590 nm) after 2 h incubation at 37° C. Data were analysed using Prism software.

SOX18 = SOX18 (Mus musculus (Mouse), UniProt P43680); experiment: Cell-based luciferase SOX18-dependent transactivation (Vcam1 promoter) in COS-7; conditions: COS7, 24 h, read-out: In vitro efficacy in cell IC50 ± SD COS7 (Luc)
Procedure: Monkey kidney fibroblast-like cells (COS-7) were cultured at 37° C., 5% CO2 in DMEM (Life technologies, 11995) with FBS, sodium pyruvate, L-glutamine, penicillin, streptomycin, non-essential amino acids and HEPES. Cells were grown in 96-well plates to 80% confluency, and transfected with mouse plasmids pGL2 Vcam 1 promoter construct (VC1889) and pSG5 Sox18, using X-tremeGENE 9 DNA transfection reagent (Roche, 06365787001) (Hosking et al., 2004, Duong et al., 2014). After 4-6 h transfection, cells were incubated with compounds in 0.5% FBS medium for another 24 h, before lysis and luciferase assay (Perkin Elmer, 6016711).

Sequence of full-length mouse SOX18 (P43680 whole entry): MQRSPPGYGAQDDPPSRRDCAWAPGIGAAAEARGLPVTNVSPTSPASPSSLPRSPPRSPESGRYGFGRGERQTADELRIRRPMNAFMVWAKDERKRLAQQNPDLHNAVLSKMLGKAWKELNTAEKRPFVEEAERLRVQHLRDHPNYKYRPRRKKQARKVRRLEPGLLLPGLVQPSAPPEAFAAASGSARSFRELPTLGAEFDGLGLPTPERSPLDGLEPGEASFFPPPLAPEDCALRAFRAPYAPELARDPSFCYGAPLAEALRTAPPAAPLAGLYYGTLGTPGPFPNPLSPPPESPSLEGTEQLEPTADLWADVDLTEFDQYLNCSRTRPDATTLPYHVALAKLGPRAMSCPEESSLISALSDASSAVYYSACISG
Sequence of SOX18 (P43680 whole entry): as above

Structure (SMILES)	median latency (survival) [1]	IC50 (full-length mouse SOX18)	CC50 at 24 h [2]	IC50 (SOX18)
CC(=O)Oc1ccccc1C(=O)O [Aspirin]	34 days	–	–	–
Cc1ccc(Cl)c(Nc2ccccc2C(=O)O)c1Cl [Meclofenamic acid, reference compound]	–	163 ± 17.7 µM	16 ± 0.3 µM	–
O=C(O)c1cccnc1Nc1cccc(C(F)(F)F)c1 [Nifumic acid, niflumic acid, reference compound]	–	375 ± 84 µM	> 200 µM	50.5 ± 7.6 µM

From patent US20240002326A1, “COMPOUNDS AND USE THEREOF IN METHODS OF TREATMENT” (The University of Queensland, priority 2016, published 2024)
